Data from patent US20220072101A1, “HARNESSING INFLAMMATION TO TREAT NEURODEVELOPMENTAL DISORDERS” (President and Fellows of Harvard College, priority 2019, published 2022).
Entries after “also recorded” stand apart in the source; their conditions may differ.

What was measured:
Format in all cases: in vivo, mouse
[1] = system: Cntnap2, Fmr1, and Shank3 mutant mice; assay: Three-chamber social approach assay in monogenic mutant mice; conditions: Cntnap2, Fmr1 and Shank3 mutant mice; LPS i.p.; 4 hours
Experimental: All experiments were performed according to Guide for the Care and Use of Laboratory Animals and were approved by the National Institutes of Health and the Committee on Animal Care at Massachusetts Institute of Technology. C57BL/6 were purchased from Taconic Biosciences for generating PBS and MIA offspring. Vgat-Cre (028862) were purchased from Jackson Laboratories and inbred. For monogenic experiments, C57BL/6, Cntnap2 (017482), Fmr1 (003025), and Shank3 (017688) mice were purchased from Jackson Laboratories and inbred after colonizing with SFB from donor mice. IL-17Ra^fl/fl and IL-17RaKO were previously described^24,25. All mice were males aged 2-5 months, unless otherwise specified.
Adult male mice were assayed for sociability using a three-chamber social approach assay. The arena was constructed of white acrylic (50 cm×35 cm×30 cm). Wire cups (Spectrum Diversified®) were placed in the back left and right corner of the arena beneath water-filled 1 L bottles (Nalgene®). On day 0, mice were habituated to the arena for 10 min. Immediately following habituation, mice were singly housed. On day 1 (Pre), mice were placed in the center of the arena and allowed to freely explore. Following 10 min, mice were confined to the center of the arena. An inanimate object (rubber stopper) or a male conspecific were placed beneath the wire cups. Placement of the inanimate object and social target were alternated. Mice were then allowed to freely explore the arena for 10 min. Interaction time was defined as time spent in the areas circumscribing the wire cups (<2 cm). Sociability was defined as interaction time with the social target divided by total interaction time and expressed as a percentage. For experiments involving LPS injections, mice were injected with either saline (Veh) or LPS ([…], i.p., L2630, Sigma) on day 2 (Test), four hours prior to testing. For the experiment assaying sociability 72 hrs following LPS injection, mice used for 4 hr LPS sociability experiments were tested for sociability again at 72 hrs. […]

IL-17a, IFNγ, IL-6, TNFα = assay: ELISA of cytokines in plasma and brain lysate
Experimental: Mice were put under general anesthesia by intraperitoneal injection of Ketamine (100 mg/kg, i.p.) and xylazine (10 mg/kg, i.p.). Blood was collected by retro-orbital puncture, using clean heparinized microhematocrit capillary tubes (Fisher Scientific®). Once the tube was withdrawn, slight pressure was applied on the eyelid with gauze to prevent further bleeding. All blood samples were centrifuged at 15,000 g for 3 min at room temperature. For quantification of cytokines in brain lysate, samples were disrupted in cold lysis buffer with protease inhibitor cocktail for 60 seconds using the Micro-Homogenizer (VWR International) and centrifuged for 30 min at 15,000×g to remove insoluble precipitates. All samples were stored at −80° C. until further analysis. Plasma and brain lysate cytokines concentrations were measured using an ELISA kit (Biolgened™), following the manufacturer's instructions.
After four hours of vehicle or LPS administration, mice were anesthetized by intraperitoneal injection of fatal plus (100 mg/kg). All blood samples were centrifuged at 10,000 g for 10 min at 4 C. All samples were stored at −80° C. until further analysis. Cytokines concentrations in plasma were measured using an ELISA kit (IFN-γ; 430804, TNF-α; 430904, IL-6; 431304, IL-17a; 432504, Biolegend®), following the manufacturer's instructions.

BBB = BBB permeability (Evans blue)
Experimental: BBB permeability was assessed with Evans blue (Sigma Aldrich®). The Evans blue dye binds to serum albumin (69,000 Da) to become a high-molecular-weight protein tracer. Mice were injected with 100 μl of Evans blue solution (10 mg/kg in PBS) intravenously. After 30 min, all injected mice were sacrificed. Whole brains were then removed and photographed. The brain tissues were disrupted in lysis buffer at full speed for 60 seconds using a Micro-Homogenizer (VWR International®). The fluorescence was determined using a Spectrophotometer (BioTek Instruments®) with excitation at 620 nm and emission at 680 nm.

MIA offspring = assay: Reciprocal social interaction assay; conditions: four hours after LPS
Experimental: Four hours prior to testing, mice were injected with vehicle or LPS. Two unfamiliar mice of the same treatment and background were placed in a fresh mouse cage and allowed to freely interact for 10 min. Videos were acquired using IC Capture (The Imaging Source®) at 640×480 aspect ratio and 25 fps. Social interaction (close following, push-crawl, nose-nose sniffing, and nose-anus sniffing) was scored by an observer blind to treatment and background^27.

For lipopolysaccharide [LPS], the “sociability after LPS” value [1] was “failed to restore sociability in mutant mice deficient for Cntnap2, Fmr1, and Shank3”, the “IL-17a in the brain” value (IL-17a, IFNγ, IL-6, TNFα; IFNγ KO MIA offspring, LPS treatment) was “no longer detectable” and the “IL-17a and IFNγ levels in the brain” value (IL-17a, IFNγ, IL-6, TNFα; MIA offspring injected with LPS, brain lysate) was “elevated levels of IL-17a, but not IFNγ, in the brain”. The “plasma levels of IFNγ, IL-6, TNFα and IL-17a” value (IL-17a, IFNγ, IL-6, TNFα; MIA offspring, LPS i.p.) was “increased plasma levels of inflammatory cytokines; also recorded: robust increase in plasma levels of IFNγ, IL-6, TNFα and IL-17a”, the “plasma/blood levels of inflammatory cytokines (IL-17a, IFNγ)” value (IL-17a, IFNγ, IL-6, TNFα; PBS (control) offspring, LPS 50 μg/kg i.p.) was “insufficient to produce high levels of inflammatory cytokines; also recorded: failed to increase IL-17a and IFNγ levels in the blood” and the “plasma levels of IFN-γ, IL-6, and TNF-α” value (IL-17a, IFNγ, IL-6, TNFα; PBS, MIA, WT and monogenic mutant mice (FIG. 23A), four hours after LPS) was “robust increase in plasma levels of IFN-γ, IL-6, and TNF-α”. The “plasma/blood IL-17a, MIA offspring vs monogenic mutant mice and controls” value (IL-17a, IFNγ, IL-6, TNFα; four hours after LPS) was “did not induce comparable amounts of interleukin-17a (IL-17a) as in MIA offspring; also recorded: prominently upregulated in MIA offspring, but not in monogenic mutant mice or in control animals; also recorded: increase in IL-17a levels in the blood selectively in MIA offspring, but not in other monogenic mutant mice”, the “BBB permeability (leakage of i.v. Evans Blue into the brain)” value (BBB; MIA offspring, LPS 3.5 hr before Evans Blue) was “can increase BBB permeability” and the “LPS-induced increase in EB leakage in knockout animals” value (BBB; animals genetically deficient for IFNγ or IL-17a) was “prevented in animals genetically deficient for IFNγ, but not IL-17a”. The reciprocal social interaction (MIA offspring) was “rescue of MIA sociability deficits was also evident”.
